What was measured:
[1] = system: B. thuringiensis; settings: cited from earlier work
[2] = system: B. anthrasis; settings: cited from earlier work
[3] = system: B. cereus; settings: cited from earlier work
[4] = system: Bacillus anthrasis AMES-RIID and ANR-1; type: cell-based
[5] = system: Bacillus thuringiensis ATCC 10792; type: cell-based
[6] = system: Bacillus cereus ATCC 14579; type: cell-based

In the case of `O=P(O)(Oc1c[nH]c2ccc(Br)c(Cl)c12)OC1C(O)C(O)C(O)C(O)C1O` (stereo not drawn) [5-bromo-4-chloro-3-indoxyl-myo-inositol-1-phosphate], the “colony colour, B. thuringiensis” value [1] is given as “turquoise colonies”, the “colony colour, B. anthrasis” value [2] is given as “white colonies” and the “colony colour, B. cereus” value [3] is given as “turquoise colonies”.

In the case of Manganese chloride, the “Bacillus anthrasis AMES-RIID and ANR-1 Colonial Morphologies 48 hours” value [4] was “cream color colony with a blue dot in the center”, the “Bacillus thuringiensis ATCC 10792 Colonial Morphologies 48 hours” value [5] was “turquoise colonies with a narrow rim” and the “Bacillus cereus ATCC 14579 Colonial Morphologies 48 hours” value [6] was “turquoise colonies with a narrow rim”.
